The text below walks through data of patent publication US20020148006A1, “Transgenic plants with modified sterol compositions” (Asgrow Seed Company, L.L.C., priority 1996, published 2002).

The test system of experiment [1] is serum and/or plasma total cholesterol and low density lipoprotein (LDL) cholesterol. The settings on record: comparison of phytosterol structures; cited from earlier work.
In a further experiment the test system is SMT. Briefly: Substrate preference of SMT in microsome preparations of P. wickerhamii. The experiment is classed as biochemical, Prototheca wickerhamii. The text has this: However, the preferred product is not 24(28)-methylene cycloartenol but cyclolaudenol (VII) which is a Δ^25(27)-24-alkyl sterol, a nonutilizable sterol.
For experiment [2], the system named is (S)-adenosyl-L-methionine: Δ^24-sterol methyl transferase (SMT). The experiment can be described thus: Sterol specificity (substrate methylation) of SMT enzyme from 4-day corn seedlings. The experiment is classed as biochemical, Zea mays (corn). Here is the method:
The sterol specificity of the microsome-bound and soluble SMT enzyme from 4-day corn seedlings was determined in order to elucidate the enzymatic basis for the plant sterols identified in Example 1.

A further experiment concerns the target T1, Arabidopsis SMT (Arabidopsis thaliana, UniProt Q39227).
T1 construct: The full-length ORF containing a Nde 1 site at the start; His-tag; made in house; host or cells: E. coli, pET23a(+)
T1 sequence (Q39227 1-361): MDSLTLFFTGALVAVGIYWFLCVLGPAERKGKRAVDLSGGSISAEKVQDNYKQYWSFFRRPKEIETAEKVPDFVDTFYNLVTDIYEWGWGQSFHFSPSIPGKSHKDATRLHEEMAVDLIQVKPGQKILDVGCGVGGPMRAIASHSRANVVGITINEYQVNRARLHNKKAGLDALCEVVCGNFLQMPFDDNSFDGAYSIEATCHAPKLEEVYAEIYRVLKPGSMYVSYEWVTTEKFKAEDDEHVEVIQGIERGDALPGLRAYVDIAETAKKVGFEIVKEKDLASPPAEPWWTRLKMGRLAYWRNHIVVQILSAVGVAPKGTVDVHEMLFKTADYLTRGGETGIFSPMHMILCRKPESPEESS
The experiment can be described thus: Sterol transformation by recombinant Arabidopsis SMT expressed in E. coli. The experiment is classed as biochemical. The settings on record: recombinant fusion protein. The text has this: The SMT gene from Arabidopsis was cloned and sequenced (FIG. 6; SEQ ID NO:3). This gene containing a His-tag was overexpressed in E. coli (Tong et al., 1997). Arabidopsis SMT was partially purified and characterized in stereochemical detail.
The Arabidopsis SMT gene was amplified by PCR from a cDNA library. The primers used were designed from the full-length cDNA sequence retrieved from the GeneBank (Accession number X89867). The amplified product was the full-length Arabidopsis SMT gene which was sub-cloned into a T/A cloning vector and sequenced. From the sequence data the ORF was identified. A Nde I site was created at the ATG start codon through PCR mediated site-directed mutagenesis. The full-length ORF containing a Nde 1 site at the start and a BamH I site at the stop was cloned into the pET23a(+) vector just as the ERG6 gene was in Example 4. […] In the case of cycloartenol only one product was formed, which is 24(28)-methylene cycloartanol, i.e., SMTI in FIG. 4. Since a single gene product was able to metabolize both sterol substrates it further confirms the enzymological data in Example 3.

Another experiment concerns Heliothis zea. The experiment can be described thus: Sterol utilization and metabolism by Heliothis zea reared on artificial diet with sterol supplement. The settings on record: for Utilization by H. zea / support of larval growth and development (words): test sterol as sole added dietary sterol. How it is done:
Heliothis zea (corn earworm) was reared on an artificial diet treated with different sterol supplements to study the relation between sterol structure and utilization in insects. H. zea eggs were used to establish a disease-free stock colony.
The stock insects were reared using sterile procedures on a pinto bean-based diet. Moths were fed 10% sucrose. Cultures were maintained at 27±1° C., at 40±10% relative humidity on a 14:10 light-dark photoperiod and an artificial diet was used to rear the insects on different sterol supplements. The experimental diet contained agar, which is known to contain trace contamination of cholesterol, otherwise the experimental diet was sterol-free.
Sterols were solubilized in acetone. Aliquots of the solutions were added to the sterol-free diet in a mortar, the material mixed thoroughly with the diet, and the organic solvent allowed to evaporate. Sterols were supplied to the medium at 200 ppm (equivalent to 1 mg of sterol per experimental vessel containing one insect).
By day 20, H. zea larva are in the final stage of larval development (sixth instar), after which the insects may pupate. A single neonate larva was placed in an experimental culture vial and allowed to grow for 20 days. The fresh weight, length and instar stage of 20-day larva were recorded.
In some treatments, the larvae were allowed to grow for another 4 days to determine whether they could pupate properly and develop into moth forms.
These fatty alcohols may comigrate with sterols during some forms of chromatography and interfere with sterol quantitation, particularly of cholesterol. Therefore, in order to confirm the identity and amount of cholesterol in the insect an aliquot of the NSF was injected into a HPLC column and the fraction corresponding to cholesterol was examined by GC-MS.

On to `CC[C@H](CC[C@@H](C)[C@H]1CC[C@H]2[C@@H]3CC[C@H]4C[C@@H](O)CC[C@]4(C)[C@H]3CC[C@]12C)C(C)C` [sitostanol], for which the “Reduction of cholesterol levels” value in experiment [1] was “more efficient compared to unsaturated compounds such as sitosterol in reducing cholesterol levels”.
In the case of `CC(C)=CCC[C@@H](C)[C@H]1CC[C@@]2(C)[C@@H]3CC[C@H]4C(C)(C)[C@@H](O)CC[C@@]45C[C@@]35CC[C@]12C` [Cycloartenol, cycloartenol], the “Substrate preference of P. wickerhamii SMT” value in the experiment with SMT is given as “preferred substrate”. Further, the Vmax in experiment [2] (first transmethylation) is listed as 4 pmol/min/mg protein. Also, the “Substrate quality for corn SMT” value is listed as “preferred sterol acceptor” in experiment [2] (microsome-bound enzyme system) and “preferred substrate for the first methylation reaction” in experiment [2] (soluble enzyme). For the same compound, in experiment [2] (soluble SMT from corn seedlings, substrates marked (C1), first methyl transfer, BG = background), the “Enzyme Activity” value is 37,515 dpm/min. The “% Activity, relative to cycloartenol methylation” value in experiment [2] (soluble SMT, (C1), first methyl transfer) is given as 100 (C1) %. Also, the “Transformation by recombinant Arabidopsis SMT” value on Arabidopsis SMT is “active in transforming both cycloartenol and 24(28)-methylene lophenol to their respective alkyl products”. In addition, the “Instar reached by day 20” value in the experiment on Heliothis zea (Table 11, sterol 200 ppm in diet) came out at 3. Further, the Growth response in the experiment with Heliothis zea (Table 11, sterol 200 ppm in diet, 20-day larvae, relative to growth on cholesterol normalized to 100%) was 5%. In addition, the “Utilization by H. zea / support of larval growth and development (words)” value is “inhibit insect growth” in the experiment on Heliothis zea and “could not be met satisfactorily” in the experiment on Heliothis zea (listed as cycloartenol).
